Experimental findings from patent publication US12291502B2, “Topoisomerase II-alpha inhibitors and methods of treating cancer using the same” (The Regents of the University of Colorado, priority 2019, dated 2025) are described below.

The subject of one assay is SW620 tumor organoids. The assay can be described thus: Tumor organoid cytotoxicity / 3D cell viability (CellTox Green). In kind it is cell-based. The method, then: Tumor organoid cytotoxicity. Fluorescence image-based method: The CellTox™ Green assay (Promega, Madison, WI, USA) was used with 3D tumor organoid to measure spheroid death. 0.1% CellTox™ Green was included in each well at the time of analogs dosing. 10% lysis solution was used as a cell death control. Fluorescence was measured at various time points with 465-510 nm excitation and 520-530 nm emission. Luminescence plate reader method: A 1:1 ratio of CellTiter-Glo™ 3D reagent (Promega) was added to 3D tumor organoid and the plate was shaken at 400 rpm for 30 min before luminescence was read with a PerkinElmer Envision plate reader.
Finally, SW620 tumor organoid cytotoxicity experiments were conducted using the CellTox Green assay, a fluorescence image-based method, to determine whether the inhibition of TCF transcription and effects on EMT are not the result of cytotoxicity. […] All of the analogs tested display IC50 dose response >30 μM and were higher compared to the IC50 values obtained during the downregulation of TCF transcription activity, and the EC50 values obtained for EMT modulation. Thus, the biological effects on TCF-transcription and EMT are not a result of tumor organoid cell death.
(§1) Tumor organoid cytotoxicity. SW620 tumor organoids were grown as previously outlined. CellTox™ Green-Express Cytotoxicity Assay (Promega, WI) solution was prepared per manufacturer's protocol. Briefly, organoids were treated for 72 h with CellTox™ Green Express (0.5×) reagent and various doses of TOP2A inhibitors over a range of 0-to-40 μM. Organoids were then imaged using the Opera Phenix HCS system (PerkinElmer, MA). CellTox™ Green Express was excited at 488 nm and emission was detected at 500-550 nm. Mean intensity of the whole well was utilized for calculating cytotoxicity with Lysis Buffer (Promega, WI, 0.025×) as the 0% viability control and 0.4% DMSO as the 100% viability control. Intensity values were normalized to these controls using GraphPad Prism 7.0 (GraphPad, CA).
as §1, with “CellTox™-Green-Express” for “CellTox™ Green-Express”, “(GraphPad.” for “(GraphPad,”

The target of the next assay is T1, hTopoIIα (TOP2A) (Homo sapiens, UniProt P11388).
T1 construct: purchased Topogen, CO
As to the kind of experiment: TOP2A ATPase / DNA relaxation assay, Michaelis-Menten mode of inhibition (malachite green). Type of assay: biochemical. To be noted: Vmax unchanged, KM shifted. The method, then: TOP2A inhibition (Michaelis-Menten). TOP2A Mode of Inhibition was tested with a relaxation assay and the inorganic phosphate (pi) generated was measured with phosphate reagent (Abcam) in black polystyrene 384-well assay plates (Thermo Fisher Scientific). ATP-dependent DNA relaxation assays in 15 μl contained 2 U hTopolla (Topogen), 85 μg/mil (10 nM) supercoiled plasmid (a gift from AstraZeneca), and various concentrations of ATP (between […]) and analog 3 and 7 (between 0 and 20 μM) in 50 mM Tris-HCl (pH 7.5), 150 mM KCl, 5% (v/v) glycerol, 10 mM MgCl2, 1 mM dithiothreitol, 0.002% (w/v) Brij-35, and 200 nM bovine serum albumin (BSA). […] An addition of 70 μL of ddH2O and 15 μL of phosphate reagent were added to each well and the plates were incubated in dark at room temp for 30 min before OD600 was read with a BioTek plate reader. […]
TOP2A ATPase Assay. The mode of inhibition of TOP2A analogs were tested with a DNA relaxation assay and the inorganic phosphate (pi) generated was measured with malachite green phosphate reagent (Abcam, MA) in black polystyrene 384-well assay plates (Thermo Fisher Scientific, MA). […] An addition of 70 μL of ddH2O and 15 μL of phosphate reagent were added to each well and the plates were incubated in dark at room temp for 30 min before OD600 was read with a BioTek plate reader. […]

Where [1] appears, read: Homo sapiens, SW-620, Table 2, 72 hours.

As usually defined, the IC50 is the concentration at which inhibition is half-maximal.

T1 sequence (P11388 whole entry): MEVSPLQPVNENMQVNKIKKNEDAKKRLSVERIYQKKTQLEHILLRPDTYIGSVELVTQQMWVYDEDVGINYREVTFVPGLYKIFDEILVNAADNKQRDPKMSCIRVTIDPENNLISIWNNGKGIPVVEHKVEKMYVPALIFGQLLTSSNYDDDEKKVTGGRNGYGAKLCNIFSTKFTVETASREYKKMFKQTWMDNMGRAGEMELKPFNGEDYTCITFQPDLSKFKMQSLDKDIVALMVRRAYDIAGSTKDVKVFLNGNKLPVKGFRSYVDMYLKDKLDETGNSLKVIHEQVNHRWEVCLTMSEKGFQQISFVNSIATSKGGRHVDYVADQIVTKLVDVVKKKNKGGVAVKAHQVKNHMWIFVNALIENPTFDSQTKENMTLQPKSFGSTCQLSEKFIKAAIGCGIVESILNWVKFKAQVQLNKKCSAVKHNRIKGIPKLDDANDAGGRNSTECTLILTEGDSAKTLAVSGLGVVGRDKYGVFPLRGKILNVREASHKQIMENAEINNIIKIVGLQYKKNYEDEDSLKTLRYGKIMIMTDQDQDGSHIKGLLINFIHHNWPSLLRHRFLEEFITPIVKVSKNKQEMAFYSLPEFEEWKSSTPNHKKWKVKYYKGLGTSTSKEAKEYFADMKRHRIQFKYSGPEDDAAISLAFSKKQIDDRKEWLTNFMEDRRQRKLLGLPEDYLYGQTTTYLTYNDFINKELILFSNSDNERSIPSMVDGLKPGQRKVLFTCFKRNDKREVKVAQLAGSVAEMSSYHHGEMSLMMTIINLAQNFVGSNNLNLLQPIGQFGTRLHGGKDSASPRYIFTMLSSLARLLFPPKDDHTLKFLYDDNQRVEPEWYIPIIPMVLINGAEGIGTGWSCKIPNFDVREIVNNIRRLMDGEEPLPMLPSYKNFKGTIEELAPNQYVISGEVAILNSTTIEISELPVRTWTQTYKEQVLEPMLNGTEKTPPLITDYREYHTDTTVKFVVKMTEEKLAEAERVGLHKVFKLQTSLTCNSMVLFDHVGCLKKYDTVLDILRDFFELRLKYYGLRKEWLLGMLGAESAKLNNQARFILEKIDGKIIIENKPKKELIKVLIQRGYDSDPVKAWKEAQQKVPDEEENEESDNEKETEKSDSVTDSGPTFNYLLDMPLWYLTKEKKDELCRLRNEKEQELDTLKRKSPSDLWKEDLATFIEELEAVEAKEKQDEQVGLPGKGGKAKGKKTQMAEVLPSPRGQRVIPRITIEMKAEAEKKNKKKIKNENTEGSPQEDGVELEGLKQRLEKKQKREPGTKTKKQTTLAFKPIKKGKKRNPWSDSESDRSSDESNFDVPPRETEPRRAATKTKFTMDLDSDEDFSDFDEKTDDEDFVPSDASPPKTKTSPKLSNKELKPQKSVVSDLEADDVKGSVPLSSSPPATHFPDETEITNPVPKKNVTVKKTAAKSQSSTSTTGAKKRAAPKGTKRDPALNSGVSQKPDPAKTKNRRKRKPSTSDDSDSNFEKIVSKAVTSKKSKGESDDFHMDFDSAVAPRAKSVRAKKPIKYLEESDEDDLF

With `O=C(CCN1CCOCC1)Nc1ccc2c(-c3cc(F)ccc3O)ccnc2c1O` [Analog 42], the IC50 with SW620 tumor organoids (setting [1]) is > 30 µM.

In the case of `CC(=O)Nc1ccc2c(-c3cc(F)ccc3O)ccnc2c1O` [Analog 7], the 50% inhibitory concentration (IC50) with SW620 tumor organoids (setting [1]) is > 30 µM. Besides, at hTopoIIα (TOP2A), the “mode of TOP2A inhibition (Michaelis-Menten kinetics of ATP hydrolysis)” value is given as “ATP-competitive mode of inhibition”.

In the case of `Cn1ccc2c(c1=O)C(=O)c1nccc3c1C2NC1=CCC=CC13` (stereo not shown) [neo, neoamphimedine, reference compound], on hTopoIIα (TOP2A), the “mode of TOP2A inhibition (Michaelis-Menten kinetics of ATP hydrolysis)” value was “ATP-competitive mode of inhibition”.

Consider `CC(C)(C)C(=O)Nc1ccc2c(-c3ccccc3)ccnc2c1O` [Analog 39], for which, in the assay with SW620 tumor organoids (Table 2, 72 hours), the IC50 was > 30 µM.

In the case of `CC(=O)Nc1ccc2c(-c3ccoc3)ccnc2c1O` [Analog 56], in the assay with SW620 tumor organoids (setting [1]), the IC50 is > 30 µM.

Regarding `CC(=O)Nc1ccc(-c2ccnc3c(O)c(NC(C)=O)ccc23)cc1` [Analog 35], the IC50 in the assay with SW620 tumor organoids (Table 2, 72 hours) is > 30 µM.
